Earlier results as cited in US6262080A, “3-(thio-substitutedamido)-lactams useful as inhibitors of matrix metalloproteinase” (Avantis Pharmaceuticals Inc., priority 1999, dated 2001).

System: B16-BL6 murine melanoma
Conditions: intraperitoneal administration; lung colonies produced by intravenous injection of B16-BL6 murine melanoma in C57BL/6N mice

## CNC(=O)[C@H](Cc1ccccc1)NC(=O)[C@H](CC(C)C)[C@H](CSc1cccs1)C(=O)NO [batimastat]
  growth and metastatic spread and number of lung colonies: significant inhibition
